In patent US10266526B2, “Substituted 1,2,3-triazoles as SMYD inhibitors for treating cancer” (EPIZYME, INC., priority 2014, dated 2019) one finds IC50 data, which are given here for 15 compounds.

Molecules are shown by their SMILES.

This test deals with SMYD2 (Homo sapiens (Human), UniProt Q9NRG4). Briefly: SMYD2 biochemical assay (SMYD2 enzyme assay on peptide substrate, 3H-SAM Flashplate). As to conditions: read-out: SMYD2 Biochem IC50; IC50 values are an average of n = 1 to n = 50.
SMYD2, sequence (Q9NRG4 whole entry): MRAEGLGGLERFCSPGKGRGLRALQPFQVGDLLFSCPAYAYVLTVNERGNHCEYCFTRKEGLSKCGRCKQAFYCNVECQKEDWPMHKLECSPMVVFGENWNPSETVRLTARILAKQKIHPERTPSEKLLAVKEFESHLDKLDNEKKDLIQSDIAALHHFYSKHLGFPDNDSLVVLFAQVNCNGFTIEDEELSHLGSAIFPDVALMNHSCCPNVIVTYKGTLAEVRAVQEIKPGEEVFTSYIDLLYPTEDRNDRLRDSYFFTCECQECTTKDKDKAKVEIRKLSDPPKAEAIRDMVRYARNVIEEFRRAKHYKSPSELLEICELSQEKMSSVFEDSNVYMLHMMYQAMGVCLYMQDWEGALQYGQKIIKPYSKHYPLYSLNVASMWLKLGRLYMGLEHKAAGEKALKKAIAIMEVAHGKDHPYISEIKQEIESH
For the compound `COc1ccc(C(C)N2CC(NC(=O)c3cn(C4CC4)nn3)C2)c(OC)c1` (stereo not drawn) [compound 801, 1-cyclopropyl-N-{1-[1-(2,4-dimethoxyphenyl)ethyl]azetidin-3-yl}-1H-1,2,3-triazole-4-carboxamide], the IC50 (commonly the concentration that gives 50% inhibition) was 1.06 µM.

Regarding `O=C(NC1CN(Cc2ccc(OCc3ccccc3)cc2)C1)c1cn(C2CC2)nn1` [compound 802, N-(1-{[4-(benzyloxy)phenyl]methyl}azetidin-3-yl)-1-cyclopropyl-1H-1,2,3-triazole-4-carboxamide], the half-inhibitory concentration (IC50) came out at 0.0834 µM.

`COc1cccc(C(C)N2CC(NC(=O)c3cn(C4CC4)nn3)C2)c1Cl` (stereo not drawn) [compound 803, N-{1-[1-(2-chloro-3-methoxyphenyl)ethyl]azetidin-3-yl}-1-cyclopropyl-1H-1,2,3-triazole-4-carboxamide]: the half-inhibitory concentration (IC50) was found to be 0.0694 µM.

Take `O=C(NC1CN(Cc2cnn(CCc3ccccc3)c2)C1)c1cn(C2CC2)nn1` [compound 806, 1-cyclopropyl-N-(1-{[1-(2-phenylethyl)-1H-pyrazol-4-yl]methyl}azetidin-3-yl)-1H-1,2,3-triazole-4-carboxamide]: the IC50 was 0.97 µM.

In the case of `O=C(NC1CN(Cc2cnn(CCc3ccccc3)c2)C1)c1cc(C2CC2)cnn1` [compound 807, 5-cyclopropyl-N-(1-{[1-(2-phenylethyl)-1H-pyrazol-4-yl]methyl}azetidin-3-yl)pyridazine-3-carboxamide], the IC50 came to 0.528 µM.

Turning to `CC(C)N1CCCC(NC(=O)c2cn(C3CC3)nn2)C1` (stereo not drawn) [compound 808, 1-cyclopropyl-N-[1-(propan-2-yl)piperidin-3-yl]-1H-1,2,3-triazole-4-carboxamide], the 50% inhibitory concentration (IC50) turned out to be 19.8 µM.

Take `O=C(NC1CN(Cc2cncn2Cc2ccccc2)C1)c1cn(C2CC2)nn1` [compound 809, N-{1-[(1-benzyl-1H-imidazol-5-yl)methyl]azetidin-3-yl}-1-cyclopropyl-1H-1,2,3-triazole-4-carboxamide]: the IC50 is above 50 µM.

For `Cn1cc(CN2CC(NC(=O)c3cn(C4CC4)nn3)C2)c(Cl)n1` [compound 811, N-{1-[(3-chloro-1-methyl-1H-pyrazol-4-yl)methyl]azetidin-3-yl}-1-cyclopropyl-1H-1,2,3-triazole-4-carboxamide], the 50% inhibitory concentration (IC50) amounted to 1.22 µM.

As to `O=C(NC1CN(C(CO)c2ccc(F)cc2)C1)c1cn(C2CC2)nn1` (stereo not drawn) [compound 813, 1-cyclopropyl-N-{1-[1-(4-fluorophenyl)-2-hydroxyethyl]azetidin-3-yl}-1H-1,2,3-triazole-4-carboxamide], the 50% inhibitory concentration (IC50) is 15.2 µM.

For `CCN1CC(NC(=O)c2cc(C3CC3)cnn2)C1` [compound 814, 5-cyclopropyl-N-(1-ethylazetidin-3-yl)pyridazine-3-carboxamide], the IC50 was 0.598 µM.

Consider `CC(C)N1CCCC(NC(=O)c2cc(C3CC3)cnn2)C1` (stereo not drawn) [compound 815, 5-cyclopropyl-N-[1-(propan-2-yl)piperidin-3-yl]pyridazine-3-carboxamide], for which the IC50 was determined as 18.7 µM.

For `O=C(NC1CN(C(c2ccc(OCc3ccccc3)cc2)C(F)(F)F)C1)c1cn(C2CC2)nn1` (stereo not drawn) [compound 816, N-(1-{1-[4-(benzyloxy)phenyl]-2,2,2-trifluoroethyl}azetidin-3-yl)-1-cyclopropyl-1H-1,2,3-triazole-4-carboxamide], the 50% inhibitory concentration (IC50) is above 50 µM.

For `CC(c1ccc(OCc2ccccc2)cc1Cl)N1CC(NC(=O)c2cn(C3CC3)nn2)C1` (stereo not drawn) [compound 817, N-(1-{1-[4-(benzyloxy)-2-chlorophenyl]ethyl}azetidin-3-yl)-1-cyclopropyl-1H-1,2,3-triazole-4-carboxamide], the IC50 was found to be 0.102 µM.

For `COCCCOc1ccc(CN2CC(NC(=O)c3cn(C4CC4)nn3)C2)cc1` [compound 818, 1-cyclopropyl-N-(1-{[4-(3-methoxypropoxy)phenyl]methyl}azetidin-3-yl)-1H-1,2,3-triazole-4-carboxamide], the IC50 was 3 µM.

As to `CNC1CCCC(C(=O)Nc2cc(O)c3c(c2)OCC(=O)N3)C1` (stereo not drawn) [compound 820, N-(5-hydroxy-3-oxo-3,4-dihydro-2H-1,4-benzoxazin-7-yl)-3-(methylamino)cyclohexane-1-carboxamide], the IC50 was above 50 µM.
